Values after ≈ are worked out from the molar mass of the structure shown.

This is an account of results in patent publication US6521661B1, “Cyclic peroxides as novel antifungal agents” (Harbor Branch Oceanographic Institution, Inc., priority 2000, dated 2003).

One data set relates to Aspergillus fumigatus. The experiment in a line: Antifungal microtiter broth assay. In kind it is cell-based. The following applies: 48 hours, 37° C., RPMI medium, scored visually. The method, then:
Preparation of Stock Cultures of Aspergillus fumigatus. Freeze-dried A. fumigatus stocks (ATCC 16424) were resuspended in 1 mL sterile distilled, de-ionized water. Slants were made with five mL of MPG agar (2% (w/v) malt extract, 2% (w/v) glucose, 0.1% (w/v) bacto-peptone, 1.5% (w/v) agar) in 16×125 mm disposable glass culture tubes, inoculated with approximately 50 μL of the above cell suspension, incubated at 25° C. for 7 days and then frozen at −80° C. To prepare glycerol stocks, a slant was thawed and conidia were resuspended in 5 mL sterile distilled, de-ionized water. Two hundred mL of MPG agar (2% (w/v) malt extract, 2% (w/v) glucose, 0.1% (w/v) bacto-peptone, 1.5% (w/v) agar) in a 1000 mL Ehrlenmeyer flask were inoculated with this 5 mL cell suspension, incubated 5-7 days at 37° C., and then frozen at −20° C. This flask was thawed and conidia were resuspended in 20 mL of sterile distilled, de-ionized water. Sufficient glycerol was added to this 20 mL suspension to make a 10% (v/v) solution (final concentration). This solution was aliquoted in 1 mL portions, frozen on dry ice, and stored at −50° C. A thawed glycerol stock was used to inoculate 96-well microtiter plates at 2×10^4 conidia per 200 μL per well in liquid RPMI medium (RPMI-1640 [Gibco], 0.165 M MOPS, pH 7.0).
(§1) Each well of a 96-well microtiter plate contained 200 μL of inoculum of C. albicans or A. fumigatus and 0.1 to 125 μg/mL of marine extract in DMSO. Controls for each assay were 0.025 to 16 μg/mL of amphotericin B, and 2 μL of DMSO. Culture plates were incubated for 24 or 48 hours (for C. albicans and A. fumigatus respectively) at 37° C., 120 rpm and scored visually using a light microscope. […] Percent inhibition was estimated. The Minimum Inhibitory Concentration was determined. Samples were considered active if they inhibited 50% or more growth.

Another data set has as its system Candida albicans. The experiment in a line: Antifungal microtiter broth assay. In kind it is cell-based. The following applies: 24 hours, 37° C., RPMI medium, scored visually. The method, then: Preparation of Stocks Cultures of Candida albicans. Freeze-dried C. albicans yeast stocks (ATCC 90028) were each resuspended in 1 mL sterile distilled, de-ionized water. Slants were made with five mL of MPG agar (2% (w/v) malt extract, 2% (w/v) glucose, 0.1% (w/v) bacto-peptone, 1.5% (w/v) agar) in 16×125 mm disposable glass culture tubes, inoculated with approximately […] of the above cell suspension, incubated at 25° C. for 7 days and then frozen at −80° C. To prepare glycerol stocks, a slant was thawed and the yeast cells were resuspended in 5 mL sterile distilled, de-ionized water. This 5 mL cell suspension was used to inoculate 50 mL of Sabouraud Dextrose Broth (3% (w/v) [Gibco]) in a 250 mL Ehrlenmeyer flask and was incubated 18-24 hours at 37° C., 180 rpm. Fifty milliliters of Sabouraud Dextrose Broth in a 250 mL Ehrlenmeyer flask were inoculated with 1×10^7 cells per mL of the previous culture and grown under the same conditions. After 18-24 hours, sufficient glycerol was added to this culture to make a 10% (v/v) solution (final concentration). This solution was aliquoted in 1 mL portions, frozen on dry ice, and stored at −50° C. A thawed glycerol stock was used to inoculate 50 mL Sabouraud's Dextrose Broth in a 250 mL Ehrlenmeyer flask and grown for 18-24 hours, at 37° C., 180 rpm. This culture was used to inoculate 96-well microtiter plates [Nunc] at 2×10^3 cells per 200 μL per well in liquid RPMI medium (RPMI-1640 [Gibco], 0.165 M MOPS, pH 7.0).
as §1

A further data set has as its system P388 murine leukemia. As to conditions: cited from earlier work.
For another data set, the target named is T1, cdc25a (Homo sapiens, UniProt P30304).
T1 sequence (P30304 1-524): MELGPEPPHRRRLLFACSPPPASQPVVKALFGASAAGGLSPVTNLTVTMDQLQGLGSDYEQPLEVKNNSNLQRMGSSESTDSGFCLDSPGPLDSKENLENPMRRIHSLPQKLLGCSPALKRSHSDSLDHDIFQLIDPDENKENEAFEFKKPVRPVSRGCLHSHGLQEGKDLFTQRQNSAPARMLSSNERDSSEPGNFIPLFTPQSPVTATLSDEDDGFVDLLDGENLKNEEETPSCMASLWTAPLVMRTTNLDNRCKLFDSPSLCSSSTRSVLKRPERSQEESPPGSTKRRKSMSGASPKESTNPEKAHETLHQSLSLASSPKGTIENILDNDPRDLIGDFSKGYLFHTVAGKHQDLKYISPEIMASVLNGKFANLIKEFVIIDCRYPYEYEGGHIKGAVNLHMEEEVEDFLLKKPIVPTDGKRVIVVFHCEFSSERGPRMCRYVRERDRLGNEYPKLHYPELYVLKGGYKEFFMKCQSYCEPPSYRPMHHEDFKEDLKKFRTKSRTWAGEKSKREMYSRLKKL
As to conditions: cited from earlier work.

The next data set relates to S. cerevisiae. As to conditions: at 100 mg/disk; cited from earlier work.
For the next data set, the system named is P. atrovenetum. As to conditions: at 100 mg/disk; cited from earlier work.
Data set [1] deals with cardiac sarcoplasmic reticulum. As to conditions: cited from earlier work.
In data set [2] the test system is murine leukemia (P388) cells. The following applies: cited from earlier work.

In the data set with Aspergillus fumigatus, `CC/C=C/C=C/C=C/CCCCCCCC[C@]1(C)C[C@](C)(CC(=O)O)OO1` [Peroxyacid 1] had an IC50 of 25 µg/mL (≈ 66 µM) and an IC90 of 25 µg/mL (≈ 66 µM). Further, in the data set on Candida albicans, the IC50 stood at 25 µg/mL (≈ 66 µM) and the IC90 was 25 µg/mL (≈ 66 µM).

`CC(CCCCCC/C=C/C=C/c1ccccc1)C[C@]1(C)C[C@](C)(CC(=O)O)OO1` (stereo partly shown) [Peroxyacid 4]: in the data set on Aspergillus fumigatus, half-maximal inhibition (IC50) was put at 31.2 µg/mL (≈ 75.3 µM) and the IC90 worked out at 31.2 µg/mL (≈ 75.3 µM). In the data set with Candida albicans, this compound displayed an IC50 of 31.2 µg/mL (≈ 75.3 µM) and an IC90 of 31.2 µg/mL (≈ 75.3 µM).

In the case of `CC/C=C/C(CC)CC(C)CC1(CC)C[C@H](CC)[C@H](CC(=O)O)OO1` (stereo partly shown), the “IC50 against P388 murine leukemia” value in the data set on P388 murine leukemia was 500 µg/mL (≈ 1410 µM).

`C[C@]1(CCCCCCCCCCc2ccccc2)C[C@](C)(CC(=O)O)OO1` [Peroxyacid 5, Epiplakinic Acid h]: the “Inhibition of the enzyme cdc25a” value at cdc25a is “inhibitor”. Further, in the data set with Aspergillus fumigatus, 0.5 µg/mL (≈ 1.33 µM) corresponded to half-maximal inhibition (IC50) and the 90% effect concentration (IC90) came out at 0.5 µg/mL (≈ 1.33 µM). In the data set on Candida albicans, this compound yielded an IC50 of 0.25 µg/mL (≈ 0.664 µM) and an IC90 of 0.25 µg/mL (≈ 0.664 µM).

On to `CC(/C=C/c1ccccc1)C/C=C/C(C)C[C@]1(C)C[C@H](C)[C@@H](CC(=O)O)OO1` (stereo partly shown) [Plakinic acid B], for which, in the data set on S. cerevisiae, the “Antifungal activity vs. S. cerevisiae (zone)” value is 20 mm. The “Antifungal activity vs. P. atrovenetum (zone)” value in the data set with P. atrovenetum is 18 mm.

Take Plakortide G: the “Ca2+ uptake by the cardiac sarcoplasmic reticulum” value (“Ca2+ uptake” below) in data set [1] was “significantly enhanced”.

On to `CC/C=C/C(CC)CCC[C@@]1(CC)C[C@H](CC)[C@H](CC(=O)OC)OO1` (stereo partly shown) [Plakortide F], for which, in data set [1], the “Ca2+ uptake” value was “significantly enhanced”.

Consider `COC(=O)C[C@@]1(C)C[C@](C)(CC(C)CCCCCCc2ccccc2)OO1` (stereo partly shown) [Epiplakinic acid E methyl ester], for which, in data set [2], the “Cytotoxicity against P388 cells” value is reported as “Cytotoxicity”.

In the data set on Aspergillus fumigatus, `CC(CCCCCC/C=C/C=C/c1ccccc1)C[C@]1(C)C[C@@](C)(CC(=O)O)OO1` (stereo partly shown) [Peroxyacid 3] came in with an IC50 of 62.5 µg/mL (≈ 151 µM) and an IC90 of 62.5 µg/mL (≈ 151 µM). Also, in the data set with Candida albicans, the IC50 was 31.2 µg/mL (≈ 75.3 µM) and the IC90 was 62.5 µg/mL (≈ 151 µM).

In the case of `CC(/C=C/c1ccccc1)C/C=C/C(C)CC1(C)CC(C)(CC(=O)O)OO1` (stereo not shown) [Plakinic acid A], the “Antifungal activity vs. S. cerevisiae (zone)” value with S. cerevisiae was 24 mm. Moreover, the “Antifungal activity vs. P. atrovenetum (zone)” value with P. atrovenetum is recorded as 25 mm.

Regarding Plakortide H, in data set [1], the “Ca2+ uptake” value is “significantly enhanced”.

With `CC/C=C/C(CC)C/C=C/[C@@]1(CC)C[C@H](CC)[C@@H](CC(=O)O)OO1` (stereo partly shown) [Peroxyacid 6], the IC50 was 5.6 µg/mL (≈ 16.5 µM) in the data set with Aspergillus fumigatus and 2 µg/mL (≈ 5.91 µM) in the data set on Candida albicans. In addition, the IC90 in the data set on Aspergillus fumigatus worked out at 5.6 µg/mL (≈ 16.5 µM); in the data set on Candida albicans, 3.9 µg/mL (≈ 11.5 µM).

Take `CC/C=C/C=C/C=C/CCCCCCCC[C@]1(C)C[C@@](C)(CC(=O)O)OO1` [Peroxyacid 2]: in the data set on Aspergillus fumigatus, inhibition was half-maximal at 25 µg/mL (≈ 66 µM) (IC50) and the 90% effect level (IC90) was put at 25 µg/mL (≈ 66 µM). Besides, in the data set with Candida albicans, the IC50 was 25 µg/mL (≈ 66 µM) and the IC90 was 25 µg/mL (≈ 66 µM).

As a reminder, the IC50 is the midpoint of a concentration-inhibition curve. A high value points to weaker potency. Usually IC90 stands for the concentration at which the effect reaches the 90% level. Lower therefore signals an effect from little substance.
